# Data published in article PMC8707451, “Separation and Identification of Antioxidants and Aldose Reductase Inhibitors in Lepechinia meyenii (Walp.) Epling” (Plants, 2021).
# Marks after values point to notes of the source that are not given here.
# Key:
# [1] = DPPH radical scavenging assay (antioxidant); conditions: for IC50: pure compounds
# Experimental: The antioxidant potential of the samples was evaluated using DPPH radical scavenging assay, as reported previously. In brief, 180 μL of freshly prepared DPPH solution (0.32 mM in MeOH) was mixed with 20 μL of the sample (in 50% MeOH, extracts and fractions, 50–400 µg/mL; components, 125–500 µM) in a 96-well plate and incubated for 20 min in the dark at 25 °C. Then, the absorbance (570 nm) of the reaction solution was measured using an EL800 microplate reader (Bio-Tek Instruments, Winooski, VT, USA). Quercetin was used as a positive control.
# [2] = biological target: rat lens AR (aldose reductase) (Rattus norvegicus, UniProt P07943); assay: AR inhibition assay with rat lens AR homogenate;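 further: supernatant of Sprague–Dawley rat lens extract as enzyme, DL-glyceraldehyde substrate, absorbance at 340 nm followed over 6 min, DMSO up to 0.5% v/v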
# Experimental: The eyes of 10-week Sprague–Dawley rats (250–280 g) were removed and kept at −70 °C before use. Then, the lenses were removed from the eyes using surgical scissors and tweezers, ground in a mortar (precooled at −70 °C) and extracted using 0.1 M phosphate-buffered saline (PBS) of pH 6.2 (approximately 0.5 mL of buffer per one rat lens). The extract solution was further centrifuged at 10,000× g for 30 min at 4 °C (Mega 17R, Hanil Science Industry, Gimpo, Korea), and the supernatant was collected and used as rat lens AR homogenate.
# For AR inhibition assay, 100 µL of 0.1 M PBS (pH 7.0), 20 µL of AR homogenate, 20 µL of NADPH (cofactor, 2.4 mM in 0.1 M PBS of pH 8.0), 20 µL of the sample (in a mixture of water and DMSO; extracts and fractions 62.5–100 µg/mL, compounds 3.9–500 µM), and 20 µL of ammonium sulfate solution (4 M in 0.1 M PBS of pH 7.0) were pipetted into a 96-well plate. Then, 20 µL of the substrate (in 0.1 M PBS of pH 7.0; 25 mM of DL-glyceraldehyde dimmer) was added, and the absorbance (340 nm) was measured for 6 min using an Epoch microplate spectrophotometer (BioTek Instruments, Winooski, VT, USA). […] DMSO was used to prepare samples, but its ratio was kept within 0.5% (v/v) of the reaction system.
# The half-maximal inhibitory concentrations (IC50 values) of samples against DPPH radicals and AR were calculated via linear regression and logarithmic analysis, respectively.
# [3] = read-out: AR Inhibitory Activity Inhibition (%)
SMILES,DPPH Scavenging Activity Inhibition (%) ([1]; compound concentration 12.5 µM),DPPH Scavenging Activity Inhibition (%) ([1]; compound concentration 25 µM),DPPH Scavenging Activity Inhibition (%) ([1]; compound concentration 50 µM),"inhibition at 12.5 µM [2, 3]","inhibition at 25 µM [2, 3]","inhibition at 50 µM [2, 3]","DPPH Scavenging Activity IC50 ([1]; extracts, fractions and quercetin, linear regression)",IC50 ([1]; linear regression),DPPH Scavenging Activity Inhibition (%) ([1]; sample concentration 5 µg/mL),DPPH Scavenging Activity Inhibition (%) ([1]; sample concentration 10 µg/mL),DPPH Scavenging Activity Inhibition (%) ([1]; sample concentration 20 µg/mL),"inhibition at 2.5 µg/mL [2, 3]","inhibition at 5 µg/mL [2, 3]","inhibition at 6.25 µM [2, 3]","inhibition at 10 µg/mL [2, 3]",IC50 [2],"inhibition at 3.125 µM [2, 3]","inhibition at 0.39 µM [2, 3]","inhibition at 0.78 µM [2, 3]","inhibition at 1.56 µM [2, 3]"
"COc1ccc([C@@H]2CC(=O)c3c(O)cc(O[C@@H]4O[C@H](CO[C@@H]5O[C@@H](C)[C@H](O)[C@@H](O)[C@H]5O)[C@@H](O)[C@H](O)[C@H]4O)cc3O2)cc1O [Hesperidin (2), Hesperidin]",1.20 ± 1.18%,2.57 ± 0.77%,3.37 ± 1.32%,1.78 ± 0.33%,10 ± 1.22%,11.6 ± 0.41%,,,,,,,,,,,,,,
"O=c1c(O)c(-c2ccc(O)c(O)c2)oc2cc(O)cc(O)c12 [Quercetin, quercetin, reference compound]",22.31 ± 0.92%,40.39 ± 0.82%,72.32 ± 0.42%,45 ± 1.65%,65.1 ± 1.47%,,10.46 ± 0.34 ^e µg/mL,33.19 ± 0.31 µM,28.65 ± 0.38%,54.43 ± 2.07%,84.78 ± 2.36%,38.7 ± 0.91%,55.3 ± 1.58%,31.5 ± 1.7%,64 ± 0.88%,,,,,
"O=C(/C=C/c1ccc(O)c(O)c1)O[C@H](Cc1ccc(O)c(O)c1)C(=O)O [Rosmarinic acid (3), Rosmarinic acid]",19.05 ± 1.33%,34.35 ± 0.69%,67.04 ± 0.64%,76 ± 1.03%,,,,36.91 ± 0.35 µM,,,,,,62.9 ± 2.1%,,4.08 ± 0.11 µM,42.6 ± 1.63%,,,
"COC(=O)[C@@H](Cc1ccc(O)c(O)c1)OC(=O)/C=C/c1ccc(O)c(O)c1 [Methyl rosmarinate (5), Methyl rosmarinate]",18.68 ± 0.63%,37.59 ± 0.60%,76.21 ± 1.04%,,,,,33.01 ± 0.27 µM,,,,,,,,1.17 ± 0.08 µM,,22.1 ± 0.85%,40.9 ± 3.47%,56.7 ± 0.85%
"CCCCOC(=O)[C@@H](Cc1ccc(O)c(O)c1)OC(=O)/C=C/c1ccc(O)c(O)c1 [n-Butyl rosmarinate (7), n-Butyl rosmarinate]",19.98 ± 0.29%,40.73 ± 1.21%,84.85 ± 0.81%,,,,,30.02 ± 0.1 µM,,,,,,,,1.54 ± 0.04 µM,,13.1 ± 0.47%,28.6 ± 0.47%,51.4 ± 0.94%
"COc1ccc(-c2cc(=O)c3c(O)cc(O[C@@H]4O[C@H](CO[C@@H]5O[C@@H](C)[C@H](O)[C@@H](O)[C@H]5O)[C@@H](O)[C@H](O)[C@H]4O)cc3o2)cc1O [Diosmin (4), Diosmin]",0.31 ± 0.69%,0.61 ± 1.08%,2.61 ± 0.67%,8.91 ± 0.62%,11.2 ± 0.82%,12.3 ± 0.62%,,,,,,,,,,,,,,
"O=C(O)/C=C/c1ccc(O)c(O)c1 [Caffeic acid (1), Caffeic acid]",8.60 ± 0.87%,20.21 ± 0.58%,43.33 ± 0.69%,12.3 ± 2.09%,17.8 ± 0.41%,20.3 ± 0.62%,,,,,,,,,,,,,,
"COc1ccc(-c2cc(=O)c3c(O)cc(O)cc3o2)cc1O [Diosmetin (6), Diosmetin]",0.14 ± 0.34%,0.46 ± 0.35%,3.18 ± 0.42%,10.5 ± 3.79%,22 ± 1.25%,34 ± 1.03%,,,,,,,,,,,,,,
"CCCOC(=O)[C@@H](Cc1ccc(O)c(O)c1)OC(=O)/C=C/c1ccc(O)c(O)c1 [Propyl rosmarinate (S2), Propyl rosmarinate]",17.68 ± 0.83%,37.15 ± 0.29%,77.82 ± 0.46%,,,,,32.7 ± 0.08 µM,,,,,,,,1.29 ± 0.01 µM,,12.3 ± 1.84%,37.9 ± 1.25%,53.67 ± 0.41%
"CCOC(=O)[C@@H](Cc1ccc(O)c(O)c1)OC(=O)/C=C/c1ccc(O)c(O)c1 [Ethyl rosmarinate (S1), Ethyl rosmarinate]",22.02 ± 0.35%,38.38 ± 0.53%,83.09 ± 0.21%,,,,,30.54 ± 0.13 µM,,,,,,,,1.02 ± 0.07 µM,,27.4 ± 2.66%,43.2 ± 0.62%,60.5 ± 2.05%
